How the values were obtained:
Format in all cases: in vivo
[1] = tested on: Chilo suppressalis; experiment: Activity against Chilo suppressalis (striped rice stemborer), artificial diet, L2 larvae; settings: 144 h, application rate 200 ppm, 6 days after infestation, read-out: control in at least one of the three categories (mortality, anti-feedant effect, or growth inhibition)
Description: Example B1: Activity Against Chilo suppressalis (Striped Rice Stemborer)
24-well microtiter plates with artificial diet were treated with aqueous test solutions prepared from 10′000 ppm DMSO stock solutions by pipetting. After drying, the plates were infested with L2 larvae (6-8 per well). The samples were assessed for mortality, anti-feeding effect, and growth inhibition in comparison to untreated samples 6 days after infestation. Control of Chilo suppressalis by a test sample is given when at least one of the categories mortality, anti-feedant effect, and growth inhibition is higher than the untreated sample.

[2] = tested on: Myzus persicae; experiment: Activity against Myzus persicae (green peach aphid), intrinsic activity; settings: 120 h, test rate 12 ppm, 5 days after infestation
Description: Example B6: Activity Against Myzus persicae (Green Peach Aphid). Intrinsic Activity
Test compounds prepared from 10′000 ppm DMSO stock solutions were applied by pipette into 24-well microtiter plates and mixed with sucrose solution. The plates were closed with a stretched Parafilm. A plastic stencil with 24 holes was placed onto the plate and infested pea seedlings were placed directly on the Parafilm. The infested plate was closed with a gel blotting paper and another plastic stencil and then turned upside down. The samples were assessed for mortality 5 days after infestation.

[3] = tested on: Myzus persicae; experiment: Activity against Myzus persicae (green peach aphid), feeding/contact activity; settings: 144 h, application rate 200 ppm, 6 days after infestation
Description: Example B5: Activity Against Myzus persicae (Green Peach Aphid). Feeding/Contact Activity
Sunflower leaf discs were placed onto agar in a 24-well microtiter plate and sprayed with aqueous test solutions prepared from 10′000 ppm DMSO stock solutions. After drying, the leaf discs were infested with an aphid population of mixed ages. The samples were assessed for mortality 6 days after infestation.

[4] = tested on: Diabrotica balteata; experiment: Activity against Diabrotica balteata (corn root worm), maize sprouts, L2 larvae; settings: 96 h, application rate 200 ppm, 4 days after infestation, read-out: control in at least one of the two categories (mortality or growth inhibition)
Description: Example B2: Activity Against Diabrotica Balteata (Corn Root Worm)
Maize sprouts placed onto an agar layer in 24-well microtiter plates were treated with aqueous test solutions prepared from 10′000 ppm DMSO stock solutions by spraying. After drying, the plates were infested with L2 larvae (6 to 10 per well). The samples were assessed for mortality and growth inhibition in comparison to untreated samples 4 days after infestation.

[5] = tested on: Euschistus heros; experiment: Activity against Euschistus heros (neotropical brown stink bug), soybean leaves, N2 nymphs; settings: 120 h, application rate 200 ppm, 5 days after infestation, read-out: effect in at least one of the two categories (mortality or growth inhibition)
Description: Example B3: Activity Against Euschistus heros (Neotropical Brown Stink Bug)
Soybean leaves on agar in 24-well microtiter plates were sprayed with aqueous test solutions prepared from 10′000 ppm DMSO stock solutions. After drying the leaves were infested with N2 nymphs. The samples were assessed for mortality and growth inhibition in comparison to untreated samples 5 days after infestation.

[6] = tested on: Plutella xylostella; experiment: Activity against Plutella xylostella (diamond back moth), artificial diet, eggs; settings: 192 h, application rate 200 ppm, 8 days after infestation, read-out: control in at least one of the two categories (mortality or growth inhibition)
Description: Example B7: Activity Against Plutella xylostella (Diamond Back Moth)
24-well microtiter plates with artificial diet were treated with aqueous test solutions prepared from 10′000 ppm DMSO stock solutions by pipetting. After drying, Plutella eggs were pipetted through a plastic stencil onto a gel blotting paper and the plate was closed with it. The samples were assessed for mortality and growth inhibition in comparison to untreated samples 8 days after infestation.

[7] = tested on: Spodoptera littoralis; experiment: Activity against Spodoptera littoralis (Egyptian cotton leaf worm), cotton leaf discs, L1 larvae; settings: foliar, 72 h, application rate 200 ppm, 3 days after infestation, read-out: control in at least one of the three categories (mortality, anti-feedant effect, or growth inhibition)
Description: Example B8: Activity Against Spodoptera littoralis (Egyptian Cotton Leaf Worm)
Cotton leaf discs were placed onto agar in 24-well microtiter plates and sprayed with aqueous test solutions prepared from 10′000 ppm DMSO stock solutions. After drying the leaf discs were infested with five L1 larvae. The samples were assessed for mortality, anti-feeding effect, and growth inhibition in comparison to untreated samples 3 days after infestation. Control of Spodoptera littoralis by a test sample is given when at least one of the categories mortality, anti-feedant effect, and growth inhibition is higher than the untreated sample.

C[C@H](NC(=O)c1cc(C(F)(F)F)cc(C(F)(F)F)c1)c1ncnn1-c1ccc(=O)n(C)n1 [P1, N-[(1S)-1-[2-(1-methyl-6-oxo-pyridazin-3-yl)-1,2,4-triazol-3-yl]ethyl]-3,5-bis(trifluoromethyl)benzamide]
≥ 80%: percent control (mortality, anti-feedant effect or growth inhibition) at 200 ppm [1] | mortality at 12 ppm [2] | mortality at 200 ppm [3] | percent control (mortality or growth inhibition) at 200 ppm [4] | percent effect (mortality or growth inhibition) at 200 ppm [5] | percent control (mortality or growth inhibition) at 200 ppm [6] | percent control (mortality, anti-feedant effect or growth inhibition) at 200 ppm [7]

CC(NC(=O)c1cc(Cl)cc(C(F)(F)F)c1)c1nccnc1-c1ccc(=O)n(C)n1 (centres unmarked) [P7, 3-chloro-N-[1-[3-(1-methyl-6-oxo-pyridazin-3-yl)pyrazin-2-yl]ethyl]-5-(trifluoromethyl)benzamide]
≥ 80%: percent control (mortality, anti-feedant effect or growth inhibition) at 200 ppm [1] | mortality at 12 ppm [2] | mortality at 200 ppm [3] | percent control (mortality or growth inhibition) at 200 ppm [4] | percent control (mortality or growth inhibition) at 200 ppm [6] | percent control (mortality, anti-feedant effect or growth inhibition) at 200 ppm [7]

CC(NC(=O)c1cc(Br)cc(C(F)(F)F)c1)c1nccnc1-c1ccc(=O)n(C)n1 (centres unmarked) [P10, 3-bromo-N-[1-[3-(1-methyl-6-oxo-pyridazin-3-yl)pyrazin-2-yl]ethyl]-5-(trifluoromethyl)benzamide]
≥ 80%: percent control (mortality, anti-feedant effect or growth inhibition) at 200 ppm [1] | mortality at 12 ppm [2] | mortality at 200 ppm [3] | percent control (mortality or growth inhibition) at 200 ppm [4] | percent control (mortality or growth inhibition) at 200 ppm [6] | percent control (mortality, anti-feedant effect or growth inhibition) at 200 ppm [7]

CCn1nc(-n2ncnc2[C@H](C)NC(=O)c2cc(Cl)cc(S(=O)(=O)C(F)(F)F)c2)ccc1=O [P17, 3-chloro-N-[(1S)-1-[2-(1-ethyl-6-oxo-pyridazin-3-yl)-1,2,4-triazol-3-yl]ethyl]-5-(trifluoromethylsulfonyl)benzamide]
≥ 80%: percent control (mortality, anti-feedant effect or growth inhibition) at 200 ppm [1] | mortality at 12 ppm [2] | mortality at 200 ppm [3] | percent control (mortality or growth inhibition) at 200 ppm [4] | percent control (mortality or growth inhibition) at 200 ppm [6] | percent control (mortality, anti-feedant effect or growth inhibition) at 200 ppm [7]

C[C@@H](c1ncnn1C1=NN(C)C(=O)CC1)N(C)C(=O)c1cc(Cl)cc(S(=O)(=O)C(F)(F)F)c1 [P22, 3-chloro-N-methyl-N-[(1S)-1-[2-(1-methyl-6-oxo-4,5-dihydropyridazin-3-yl)-1,2,4-triazol-3-yl]ethyl]-5-(trifluoromethylsulfonyl) benzamide]
≥ 80%: percent control (mortality, anti-feedant effect or growth inhibition) at 200 ppm [1] | mortality at 12 ppm [2] | mortality at 200 ppm [3] | percent control (mortality or growth inhibition) at 200 ppm [4] | percent control (mortality or growth inhibition) at 200 ppm [6] | percent control (mortality, anti-feedant effect or growth inhibition) at 200 ppm [7]

CC(NC(=O)c1cc(C(F)(F)F)cc(C2(C#N)CC2)c1)c1nccnc1-c1ccc(=O)n(C)n1 (centres unmarked) [P24, 3-(1-cyanocyclopropyl)-N-[1-[3-(1-methyl-6-oxo-pyridazin-3-yl)pyrazin-2-yl]ethyl]-5-(trifluoromethyl) benzamide]
≥ 80%: percent control (mortality, anti-feedant effect or growth inhibition) at 200 ppm [1] | mortality at 12 ppm [2] | mortality at 200 ppm [3] | percent control (mortality or growth inhibition) at 200 ppm [6] | percent control (mortality, anti-feedant effect or growth inhibition) at 200 ppm [7]

CC(NC(=O)c1cc(Cl)nc(C2(C#N)CC2)c1)c1nccnc1-c1ccc(=O)n(C)n1 (centres unmarked) [P34, 2-chloro-6-(1-cyanocyclopropyl)-N-[1-[3-(1-methyl-6-oxo-pyridazin-3-yl)pyrazin-2-yl]ethyl]pyridine-4-carboxamide]
≥ 80%: percent control (mortality, anti-feedant effect or growth inhibition) at 200 ppm [1] | mortality at 12 ppm [2] | mortality at 200 ppm [3] | percent control (mortality or growth inhibition) at 200 ppm [6] | percent control (mortality, anti-feedant effect or growth inhibition) at 200 ppm [7]

C[C@H](NC(=O)c1cc(Cl)nc(C2(C#N)CC2)c1)c1ncnn1-c1ccc(=O)n(C)n1 [P35, 2-chloro-6-(1-cyanocyclopropyl)-N-[(1S)-1-[2-(1-methyl-6-oxo-pyridazin-3-yl)-1,2,4-triazol-3-yl]ethyl]pyridine-4-carboxamide]
≥ 80%: percent control (mortality, anti-feedant effect or growth inhibition) at 200 ppm [1] | mortality at 12 ppm [2] | mortality at 200 ppm [3] | percent effect (mortality or growth inhibition) at 200 ppm [5] | percent control (mortality or growth inhibition) at 200 ppm [6]

C[C@H](NC(=O)c1cc(I)cc(C(F)(F)F)c1)c1ncnn1-c1ccc(=O)n(C)n1 [P36, 3-iodo-N-[(1S)-1-[2-(1-methyl-6-oxo-pyridazin-3-yl)-1,2,4-triazol-3-yl]ethyl]-5-(trifluoromethyl)benzamide]
≥ 80%: percent control (mortality, anti-feedant effect or growth inhibition) at 200 ppm [1] | mortality at 12 ppm [2] | percent control (mortality or growth inhibition) at 200 ppm [4] | percent effect (mortality or growth inhibition) at 200 ppm [5] | percent control (mortality or growth inhibition) at 200 ppm [6] | percent control (mortality, anti-feedant effect or growth inhibition) at 200 ppm [7]

CC(NC(=O)c1cc(OC(F)F)cc(C2(C#N)CC2)c1)c1nccnc1-c1ccc(=O)n(C)n1 (centres unmarked) [P44, 3-(1-cyanocyclopropyl)-5-(difluoromethoxy)-N-[1-[3-(1-methyl-6-oxo-pyridazin-3-yl)pyrazin-2-yl]ethyl]benzamide]
≥ 80%: percent control (mortality, anti-feedant effect or growth inhibition) at 200 ppm [1] | mortality at 12 ppm [2] | mortality at 200 ppm [3] | percent effect (mortality or growth inhibition) at 200 ppm [5] | percent control (mortality or growth inhibition) at 200 ppm [6] | percent control (mortality, anti-feedant effect or growth inhibition) at 200 ppm [7]

C[C@H](NC(=O)c1cc(OC(F)F)cc(C2(C#N)CC2)c1)c1ncnn1-c1ccc(=O)n(C)n1 [P45, 3-(1-cyanocyclopropyl)-5-(difluoromethoxy)-N-[(1S)-1-[2-(1-methyl-6-oxo-pyridazin-3-yl)-1,2,4-triazol-3-yl]ethyl]benzamide]
≥ 80%: percent control (mortality, anti-feedant effect or growth inhibition) at 200 ppm [1] | mortality at 12 ppm [2] | mortality at 200 ppm [3] | percent effect (mortality or growth inhibition) at 200 ppm [5]

CC(NC(=O)c1cc(Br)cc(C(F)(F)F)c1)c1nccnc1-c1cn(CC(F)F)c(=O)cn1 (centres unmarked) [P49, 3-bromo-N-[1-[3-[4-(2,2-difluoroethyl)-5-oxo-pyrazin-2-yl]pyrazin-2-yl]ethyl]-5-(trifluoromethyl)benzamide]
≥ 80%: percent control (mortality, anti-feedant effect or growth inhibition) at 200 ppm [1] | mortality at 12 ppm [2] | mortality at 200 ppm [3] | percent control (mortality or growth inhibition) at 200 ppm [4] | percent control (mortality or growth inhibition) at 200 ppm [6] | percent control (mortality, anti-feedant effect or growth inhibition) at 200 ppm [7]

From patent US20250042875A1, “PESTICIDALLY ACTIVE PYRIDAZINONE COMPOUNDS” (SYNGENTA CROP PROTECTION AG, priority 2021, published 2025)
